Experimental data reported in PubChem BioAssay AID248 (DTP/NCI, 2004).
Several values for one entry are separate records, joined by “and”; a condition that tells them apart may be missing. Equal entries are not always repeated. Inconclusive results and toxic doses are left out.

System: L1210 leukemia ip in BDF1 mice, survival T/C
Test: NCI In Vivo Anticancer Drug Screen. Data for tumor model L1210 Leukemia (intraperitoneal) in B6D2F1 (BDF1) mice
Conditions: endpoint: mean survival time, higher = longer survival
Outline: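 Survival endpoint. Drug-treated group vs vehicle group, expressed as T divided by C. Tumor passaged by transplantation.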

[1] = dose: 100.0 mg/kg/injection, schedule: Q01DX001 (ip), vehicle: saline
[2] = dose: 200.0 mg/kg/injection, schedule: Q01DX001 (ip), vehicle: saline
[3] = dose: 100.0 mg/kg/injection, schedule: Q01DX009 (ip), vehicle: Klucel (hydroxypropylcellulose) (HPC)
[4] = dose: 200.0 mg/kg/injection, schedule: Q01DX009 (ip), vehicle: Klucel (hydroxypropylcellulose) (HPC)
[5] = dose: 400.0 mg/kg/injection, schedule: Q01DX001 (ip), vehicle: saline
[6] = dose: 100.0 mg/kg/injection, schedule: Q04DX003 (ip), vehicle: Klucel (hydroxypropylcellulose) (HPC)
[7] = dose: 200.0 mg/kg/injection, schedule: Q04DX003 (ip), vehicle: Klucel (hydroxypropylcellulose) (HPC)
[8] = dose: 400.0 mg/kg/injection, schedule: Q04DX003 (ip), vehicle: Klucel (hydroxypropylcellulose) (HPC)
[9] = dose: 100.0 mg/kg/injection, schedule: Q04DX002 (ip), vehicle: saline
[10] = dose: 200.0 mg/kg/injection, schedule: Q04DX002 (ip), vehicle: saline
[11] = dose: 400.0 mg/kg/injection, schedule: Q04DX002 (ip), vehicle: saline
[12] = dose: 100.0 mg/kg/injection, schedule: Q01DX001 (ip), vehicle: Klucel (hydroxypropylcellulose) (HPC)
[13] = dose: 200.0 mg/kg/injection, schedule: Q01DX001 (ip), vehicle: Klucel (hydroxypropylcellulose) (HPC)
[14] = dose: 100.0 mg/kg/injection, schedule: Q04DX003 (ip), vehicle: saline with Tween-80
[15] = dose: 200.0 mg/kg/injection, schedule: Q04DX003 (ip), vehicle: saline with Tween-80
[16] = dose: 400.0 mg/kg/injection, schedule: Q04DX003 (ip), vehicle: saline with Tween-80
[17] = dose: 100.0 mg/kg/injection, schedule: Q04DX003 (ip), vehicle: saline

O=C(Nc1ccc(/C=C/c2ccc(NC(=O)Nc3cccc(C4=NCCN4)c3)cc2)cc1)Nc1cccc(C2=NCCN2)c1
T/C (dose: 3.75 mg/kg/injection, schedule: Q01DX Z (ip), vehicle: carboxymethylcellulose (CMC)): 93 % of control
T/C (dose: 7.5 mg/kg/injection, schedule: Q01DX Z (ip), vehicle: carboxymethylcellulose (CMC)): 98 % of control
T/C (dose: 15.0 mg/kg/injection, schedule: Q01DX Z (ip), vehicle: carboxymethylcellulose (CMC)): 96 % of control
T/C (dose: 50.0 mg/kg/injection, schedule: Q01DX Z (ip), vehicle: carboxymethylcellulose (CMC)): 103 % of control
T/C (dose: 100.0 mg/kg/injection, schedule: Q01DX Z (ip), vehicle: carboxymethylcellulose (CMC)): 102 % of control
T/C (dose: 200.0 mg/kg/injection, schedule: Q01DX Z (ip), vehicle: carboxymethylcellulose (CMC)): 97 % of control

N=C(N)c1ccc(N=NNc2ccc(C(=N)N)cc2)cc1 (tested in a mixture with another compound)
T/C [1]: 93 % of control
T/C [2]: 98 % of control

Cc1cccc(C)c1NC(=O)Nc1ccc(CCO)cc1
T/C [3]: 97 % of control
T/C [4]: 98 % of control

CCCCCCCNC1=C(C)C(=O)C(NCCCCCCC)=C(C)C1=O
T/C (dose: 100.0 mg/kg/injection, schedule: Q01DX001 (ip), vehicle: carboxymethylcellulose (CMC)): 96 % of control
T/C [1]: 93 % of control
T/C (dose: 200.0 mg/kg/injection, schedule: Q01DX001 (ip), vehicle: carboxymethylcellulose (CMC)): 96 % of control
T/C [2]: 96 % of control
T/C (dose: 400.0 mg/kg/injection, schedule: Q01DX001 (ip), vehicle: carboxymethylcellulose (CMC)): 89 % of control
T/C [5]: 93 % of control

CNC(=O)c1ccc(NC(=O)Nc2ccc(C3=NCCN3)cc2)cc1NC(=O)Nc1ccc(C2=NCCN2)cc1
T/C (dose: 2.0 mg/kg/injection, schedule: Q01DX Z (ip), vehicle: carboxymethylcellulose (CMC)): 96 % of control
T/C (dose: 4.0 mg/kg/injection, schedule: Q01DX Z (ip), vehicle: carboxymethylcellulose (CMC)): 112 % of control
T/C (dose: 17.0 mg/kg/injection, schedule: Q01DX Z (ip), vehicle: carboxymethylcellulose (CMC)): 209 % of control and 351 % of control
T/C (dose: 27.0 mg/kg/injection, schedule: Q01DX Z (ip), vehicle: carboxymethylcellulose (CMC)): 287 % of control
T/C (dose: 34.0 mg/kg/injection, schedule: Q01DX Z (ip), vehicle: carboxymethylcellulose (CMC)): 239 % of control and 295 % of control
T/C (dose: 51.0 mg/kg/injection, schedule: Q01DX Z (ip), vehicle: carboxymethylcellulose (CMC)): 209 % of control
T/C (dose: 62.0 mg/kg/injection, schedule: Q01DX Z (oral), vehicle: carboxymethylcellulose (CMC)): 104 % of control
T/C (dose: 68.0 mg/kg/injection, schedule: Q01DX Z (ip), vehicle: carboxymethylcellulose (CMC)): 152 % of control
T/C (dose: 125.0 mg/kg/injection, schedule: Q01DX Z (oral), vehicle: carboxymethylcellulose (CMC)): 105 % of control
T/C (dose: 250.0 mg/kg/injection, schedule: Q01DX Z (oral), vehicle: carboxymethylcellulose (CMC)): 102 % of control
T/C (dose: 500.0 mg/kg/injection, schedule: Q01DX Z (oral), vehicle: carboxymethylcellulose (CMC)): 102 % of control

CCOC(=O)/C=C(/C)N
T/C (dose: 100.0 mg/kg/injection, schedule: Q04DX002 (ip), vehicle: saline with Tween-80): 95 % of control
T/C (dose: 200.0 mg/kg/injection, schedule: Q04DX002 (ip), vehicle: saline with Tween-80): 91 % of control
T/C (dose: 400.0 mg/kg/injection, schedule: Q04DX002 (ip), vehicle: saline with Tween-80): 95 % of control

C(=C\c1ccccc1)/Nc1ccccc1
T/C [6]: 97 % of control
T/C [7]: 96 % of control
T/C [8]: 92 % of control

C=C1CC(O)C2C(C)C(=O)OC2C2C1CC1OC12C (stereo not drawn)
T/C [9]: 92 % of control
T/C [10]: 95 % of control
T/C [11]: 92 % of control

c1ccc(C(NC2CC3CCC2C3)c2ccccc2)cc1 (stereo not drawn)
T/C (dose: 50.0 mg/kg/injection, schedule: Q01DX009 (ip), vehicle: saline sonified): 101 % of control
T/C [12]: 109 % of control
T/C (dose: 100.0 mg/kg/injection, schedule: Q01DX009 (ip), vehicle: saline sonified): 95 % of control
T/C [13]: 95 % of control
T/C (dose: 200.0 mg/kg/injection, schedule: Q01DX009 (ip), vehicle: saline sonified): 100 % of control

COC(=O)c1cc(OC)cc(OC)c1
T/C (dose: 100.0 mg/kg/injection, schedule: Q04DX003 (ip), vehicle: other): 88 % of control
T/C (dose: 200.0 mg/kg/injection, schedule: Q04DX003 (ip), vehicle: other): 92 % of control
T/C (dose: 400.0 mg/kg/injection, schedule: Q04DX003 (ip), vehicle: other): 97 % of control

CCCCCCCCCCCCCCCCCc1nc2nc(Cl)c(Cl)nc2[nH]1
T/C (dose: 50.0 mg/kg/injection, schedule: Q01DX009 (ip), vehicle: saline with Tween-80): 91 % of control
T/C (dose: 100.0 mg/kg/injection, schedule: Q01DX009 (ip), vehicle: saline with Tween-80): 91 % of control
T/C [14]: 98 % of control and 89 % of control
T/C (dose: 200.0 mg/kg/injection, schedule: Q01DX009 (ip), vehicle: saline with Tween-80): 91 % of control
T/C [15]: 96 % of control
T/C (dose: 400.0 mg/kg/injection, schedule: Q01DX009 (ip), vehicle: saline with Tween-80): 93 % of control
T/C [16]: 94 % of control and 90 % of control

Nc1nc(-c2ccccc2)c(CCCNc2ccc(C(=O)NC(CCC(=O)O)C(=O)O)cc2)c(=O)[nH]1 (stereo not drawn)
T/C (dose: 50.0 mg/kg/injection, schedule: Q01DX001 (ip), vehicle: saline): 98 % of control
T/C [1]: 104 % of control
T/C [14]: 106 % of control
T/C [2]: 98 % of control
T/C [15]: 100 % of control
T/C [5]: 101 % of control
T/C [16]: 89 % of control

O=S(=O)(Nc1c(Cl)c(Cl)c(NS(=O)(=O)c2ccccc2)c(Cl)c1Cl)c1ccccc1
T/C [3]: 103 % of control
T/C [4]: 111 % of control
T/C (dose: 400.0 mg/kg/injection, schedule: Q01DX009 (ip), vehicle: Klucel (hydroxypropylcellulose) (HPC)): 103 % of control

O=C1Nc2ccc(Br)cc2C1=Nc1ccc2c(c1)OCO2
T/C (dose: 100.0 mg/kg/injection, schedule: Q04DX002 (ip), vehicle: Klucel (hydroxypropylcellulose) (HPC)): 100 % of control
T/C (dose: 200.0 mg/kg/injection, schedule: Q04DX002 (ip), vehicle: Klucel (hydroxypropylcellulose) (HPC)): 95 % of control
T/C (dose: 400.0 mg/kg/injection, schedule: Q04DX002 (ip), vehicle: Klucel (hydroxypropylcellulose) (HPC)): 100 % of control

CC1(C)N=C(N)N=C(N)N1c1cccc([N+](=O)[O-])c1
T/C (dose: 25.0 mg/kg/injection, schedule: Q04DX002 (ip), vehicle: saline): 93 % of control
T/C (dose: 25.0 mg/kg/injection, schedule: Q04DX003 (ip), vehicle: saline): 106 % of control
T/C (dose: 50.0 mg/kg/injection, schedule: Q04DX002 (ip), vehicle: saline): 96 % of control
T/C (dose: 50.0 mg/kg/injection, schedule: Q04DX003 (ip), vehicle: saline): 105 % of control
T/C [9]: 91 % of control
T/C [17]: 98 % of control and 111 % of control

CC(c1c[nH]c2ccccc12)C(N)C(=O)O (stereo not drawn)
T/C [17]: 95 % of control and 93 % of control
T/C (dose: 200.0 mg/kg/injection, schedule: Q04DX003 (ip), vehicle: saline): 98 % of control and 92 % of control
T/C (dose: 400.0 mg/kg/injection, schedule: Q04DX003 (ip), vehicle: saline): 95 % of control and 97 % of control

FC1=C(F)C2(F)C3CCC(O3)C2(F)C(Br)=C1F (stereo not drawn)
T/C [12]: 99 % of control
T/C [6]: 101 % of control
T/C [13]: 91 % of control
T/C [7]: 101 % of control
T/C (dose: 400.0 mg/kg/injection, schedule: Q01DX001 (ip), vehicle: Klucel (hydroxypropylcellulose) (HPC)): 100 % of control
T/C [8]: 98 % of control

CCOC(=O)c1ccc(NC(=O)Sc2ccccc2C)cc1
T/C [9]: 120 % of control
T/C [10]: 120 % of control
T/C [11]: 87 % of control

COc1ccc(C2(C(=O)O)CC2)cc1
T/C [14]: 96 % of control
T/C [15]: 97 % of control
T/C [16]: 94 % of control

O=C(OCCCC(C(=O)c1ccccc1)=P(c1ccccc1)(c1ccccc1)c1ccccc1)c1ccccc1
T/C (dose: 100.0 mg/kg/injection, schedule: Q01DX001 (ip), vehicle: saline with Tween-80): 104 % of control
T/C (dose: 200.0 mg/kg/injection, schedule: Q01DX001 (ip), vehicle: saline with Tween-80): 93 % of control
T/C (dose: 400.0 mg/kg/injection, schedule: Q01DX001 (ip), vehicle: saline with Tween-80): 93 % of control
